In article PMC7993833, “EDP-938, a novel nucleoprotein inhibitor of respiratory syncytial virus, demonstrates potent antiviral activities in vitro and in a non-human primate model” (PLoS Pathogens, 2021):
“Also recorded” adds a separate entry of the source. Read-outs that look alike come from different tables or passages of the source.

Key:
[1] = system: GS-5806- and AZ-27-resistant RSV; test: Activity against GS-5806- and AZ-27-selected resistant viruses; type: cell-based, respiratory syncytial virus; settings: own resistant virus
RSV [2] = test: Single-round synchronized infection time-of-addition, RT-qPCR endpoint; type: cell-based, respiratory syncytial virus; settings: HEp-2; MOI 3; cold-synchronized; 2x or 20x EC50; added 0-8 hpi; RT-qPCR at 24 hpi
Experimental: In order to help determine which step of the viral life cycle EDP-938 blocks multiple in vitro time-of-addition studies were performed. In the first study, EDP-938 was administered to cells infected with RSV-A Long at a MOI of 0.1 at 2 hours pre-infection (-2) or 2, 6, or 24 hours post-infection (hpi), and viral CPE evaluated 5 days later. […] A second time-of-addition study explored the ability of EDP-938 to protect not just a population experiencing a spreading infection, but individual cells already infected with RSV. Using a MOI of 3, which infects approximately 95% of all cells, virus was cold-adsorbed to the cells for 1 hour to synchronize infection before transfer to 37°C to induce fusion (marking the 0 hpi time point). Compound was added at times indicated and a 24 hpi RT-qPCR endpoint was employed to constrain viral replication cycle to a single complete cycle.
For single round infection synchronized infection 25,000 HEp-2 cpw seeded 1-day pre-infection. Plates brought to 4°C, viral infection at 3 MOI calculated for 30,000 cpw incubated at 4°C 1hr. Compound added to 0h plate and plates moved to 37°C. Compound added at 2h, 4h, 6h, and 8h post-incubation (when plates moved to 37°C) to appropriate plates. 24 hpi viral copies measured with RT-qPCR as described above.

[3] = system: recombinant RSV A2-line19F, N protein mutants; test: microbe, parasite or virus in culture; settings: human respiratory syncytial virus
[4] = system: RSV-B VR-955 EDP-938 resistant populations; test: Susceptibility of EDP-938 resistant RSV-B VR-955 populations; type: cell-based, respiratory syncytial virus
[5] = system: recombinant RSV A2-line19F, N protein mutants
RSV A2 = test: RSV-infected African Green monkey model, viral load; type: in vivo, African Green monkeys (Chlorocebus); settings: 100 mg/kg BID oral gavage; BAL
Experimental: African Green monkeys (AGMs) are permissive for human RSV infection and support a relatively higher level of viral replication compared to cotton rats and BALB/c mice. It has been previously validated as a non-human primate model for assessing in vivo efficacy of potential RSV vaccines and antiviral drugs. To evaluate the activity of EDP-938 in the AGM model, 4 animals each were treated with 100 mg/kg BID with EDP-938, RSV-604, or vehicle control via oral gavage starting 24 hours prior to RSV challenge and continuing for an additional 5 days. Samples were collected through bronchoalveolar lavage (BAL) and nasopharyngeal (NP) swab at various time points to determine viral load. […] Viral load in the NP swab samples was also determined.
A study of EDP-938 and RSV-604 in the African Green monkey (AGM) animal model was performed by BIOQUAL, Inc (Rockville, Maryland). Methods were similar to those run in a study by Ispas et al.. Six (6) male and 6 female AGMs (Chlorocebus) of 4–5 kg were purchased from PrimGen (Hines, Illinois). Each animal was challenged with 2 x 10^5 PFU of RSV A2 viral inoculum (Virapur, San Diego, CA). Four animals (2 per sex) in each group were treated with EDP-938, RSV-604, or vehicle control (0.5% w/v methylcellulose). The animals were dosed via oral gavage twice daily (every 12 hours), starting 24 hours prior to RSV challenge, and then continuing for an additional 5 days (6 total days of dose administration). Bronchoalveolar lavage (BAL) samples and nasopharyngeal (NP) swabs were collected for viral load determination.

RSV-A Long [6] = test: CPE assay (ATPlite), RSV-A Long in HEp-2 cells; type: cell-based; settings: human respiratory syncytial virus
RSV replicon = system: RSV replicon; design: method as in PMID 25451060; settings: compared to AZ-27; cited from earlier work
RSV-A Long [7] = test: RT-qPCR viral load assay, RSV-A Long in HEp-2 cells; type: cell-based; settings: human respiratory syncytial virus
RSV [8] = system: RSV; design: method as in PMID 31915807; settings: patients who achieved RSV-604 levels in excess of the EC90; cited from earlier work
[9] = Plasma drug exposure in African Green monkey study; type: in vivo, African Green monkeys (Chlorocebus); settings: both sexes, in vivo, 100 mg/kg BID oral, read-out: mean plasma Ctrough
Text: The African green monkey model was selected for EDP-938 in vivo studies for its higher level of viral replication versus cotton rats and BALB/c mice. […] In this previous trial, patients who achieved RSV-604 levels in excess of the EC90 experienced a 2.31 log reduction in viral load. […] The lack of antiviral activity observed with RSV-604 could be a function of relatively poor potency compared to EDP-938 (Fig 1) and/or insufficient tissue exposure. While in this study the animals were not sacrificed and thus the drug level in the lung could not be determined, plasma samples were taken at 12h after the last dose (Ctrough) to confirm drug exposure. […] It is reasonable to project that given the same dose or exposure EDP-938 should perform better than RSV-604 in RSV infected patients as well.
A study of EDP-938 and RSV-604 in the African Green monkey (AGM) animal model was performed by BIOQUAL, Inc (Rockville, Maryland). Methods were similar to those run in a study by Ispas et al.. Six (6) male and 6 female AGMs (Chlorocebus) of 4–5 kg were purchased from PrimGen (Hines, Illinois). Each animal was challenged with 2 x 10^5 PFU of RSV A2 viral inoculum (Virapur, San Diego, CA). Four animals (2 per sex) in each group were treated with EDP-938, RSV-604, or vehicle control (0.5% w/v methylcellulose). […]

RSV [10] = system: RSV; design: method as in PMID 19707346; settings: premature infants; monthly injection; cited from earlier work
[11] = HEp-2, recombinant RSV Wild-type (WT), HEp2

Row | Compound | activity against the virus selected for resistance with the same compound [1] | EC50 ([3]; HEp-2, recombinant RSV N K107N) [nM] | EC50 ([3]; HEp-2, recombinant RSV N K136R) [nM] | EC50 ([3]; HEp-2, recombinant RSV N L139I) [nM] | EC50 ([3]; HEp-2, recombinant RSV N M109I) [nM] | EC50 ([3]; HEp-2, recombinant RSV N M109K) [nM] | EC50 ([3]; HEp-2, recombinant RSV N M109T) [nM] | EC50 ([3]; HEp-2, recombinant RSV N N105D) [nM] | EC50 ([3]; HEp-2, recombinant RSV N S134T) [nM] | EC50 ([3]; HEp-2, recombinant RSV N V90A) [nM] | EC50 [3, 11] [nM] | EC50 Fold Change vs. WT ([4]; RSV-B VR-955 Wild-Type) [fold] | EC50 Fold Change vs. WT ([5]; recombinant RSV N K107N) [fold] | EC50 Fold Change vs. WT ([5]; recombinant RSV N K136R) [fold] | EC50 Fold Change vs. WT ([5]; recombinant RSV N L139I) [fold] | EC50 Fold Change vs. WT ([5]; recombinant RSV N M109I) [fold] | EC50 Fold Change vs. WT ([5]; recombinant RSV N M109K) [fold] | EC50 Fold Change vs. WT ([5]; recombinant RSV N M109T) [fold] | EC50 Fold Change vs. WT ([5]; recombinant RSV N N105D) [fold] | EC50 Fold Change vs. WT ([5]; recombinant RSV N S134T) [fold] | other results
1 | O=C(NC1CC1)c1cc2c(s1)-c1ccccc1N(C(=O)c1ccc(NC(=O)c3cccnc3N3CCC4(CC3)COC4)cc1)CC2 [AZ-27] | lost all ability to inhibit their resistant viruses | – | – | – | – | – | – | – | – | – | – | – | – | – | – | – | – | – | – | – | –
2 | Cc1cn2nc([C@@H]3CCCCN3C(=O)c3cc(Cl)ccc3NS(C)(=O)=O)cc2nc1N1CC[C@H](N)C1 [GS-5806] | lost all ability to inhibit their resistant viruses | 0.09 ± 0.07 | 0.54 ± 0.34 | 0.17 ± 0.15 | 0.11 ± 0.09 | 0.06 ± 0.05 | 0.21 | 0.14 ± 0.2 | 0.23 ± 0.3 | 0.13 | 0.13 ± 0.12 | 1 | 0.7 | 4.2 | 1.3 | 0.8 | 0.5 | 1.6 | 1.1 | 1.8 | inhibition of viral RNA production by time of addition (RSV [2]): reduced when added at 0 hpi and completely lost when added at 8 hpi; EC50 Fold Change vs. WT ([4]; RSV-B VR-955 Population 1, N: M109K, L139Q (dual WT/mutant population)): 0.2 fold; EC50 Fold Change vs. WT ([4]; RSV-B VR-955 Population 2, N: M109T): 0.2 fold; EC50 Fold Change vs. WT ([5]; recombinant RSV N V90A): 1.0 fold; EC50 Fold Change vs. WT ([5]; recombinant RSV Wild-type (WT)): 1.0 fold
3 | O=C(Nc1ccccc1F)N[C@H]1N=C(c2ccccc2)c2ccccc2NC1=O [RSV-604] | – | 1810 | 4300 | 9550 | 514 ± 159 | 2870 | 1860 | 2700 | 2480 | 1420 | 1150 | 1 | 1.6 | 3.7 | 8.3 | 0.4 | 2.5 | 1.6 | 2.3 | 2.1 | effect on RSV viral load vs vehicle control (RSV A2): did not result in significant RSV viral load reduction; also recorded: unable to reduce viral load in a statistically significant manner; EC50 (RSV-A Long [6]; HEp-2, 120 h): 1430 nM; EC50 (RSV-A Long [6]; HEp-2, read-out: EC50, RSV-A Long-induced CPE): ~1400 nM; effect in a replicon assay (RSV replicon): minimal effect; EC50 (RSV-A Long [7]; HEp-2, 120 h): 1980 nM; EC50 (RSV-A Long [7]; HEp-2, read-out: EC50, inhibition of viral replication): ~2000 nM; reduction in viral load (RSV [8]): 2.31 log; concentration at 12 h after the last dose [9]: 637 nM; EC50 Fold Change vs. WT ([5]; recombinant RSV N V90A): 1.2 fold; EC50 Fold Change vs. WT ([5]; recombinant RSV Wild-type (WT)): 1.0 fold
4 | palivizumab: monthly injectable monoclonal antibody against RSV | – | – | – | – | – | – | – | – | – | – | – | – | – | – | – | – | – | – | – | – | relative reduction in RSV-associated hospitalizations (RSV [10]): approximately 55%
